Results from article PMC7933434, “Entropy-driven binding of gut bacterial β-glucuronidase inhibitors ameliorates irinotecan-induced toxicity” (Communications Biology, 2021).
Values joined by “and” are separate entries in the source; they are usually repeats but may differ in a detail not shown here. Equal entries are not always repeated.

Molecular target: T1, HsGUS (human GUS) (Homo sapiens, UniProt P08236)
T1 construct: HsGUS was prepared as described[37]; made in house
T1 sequence (P08236 23-651): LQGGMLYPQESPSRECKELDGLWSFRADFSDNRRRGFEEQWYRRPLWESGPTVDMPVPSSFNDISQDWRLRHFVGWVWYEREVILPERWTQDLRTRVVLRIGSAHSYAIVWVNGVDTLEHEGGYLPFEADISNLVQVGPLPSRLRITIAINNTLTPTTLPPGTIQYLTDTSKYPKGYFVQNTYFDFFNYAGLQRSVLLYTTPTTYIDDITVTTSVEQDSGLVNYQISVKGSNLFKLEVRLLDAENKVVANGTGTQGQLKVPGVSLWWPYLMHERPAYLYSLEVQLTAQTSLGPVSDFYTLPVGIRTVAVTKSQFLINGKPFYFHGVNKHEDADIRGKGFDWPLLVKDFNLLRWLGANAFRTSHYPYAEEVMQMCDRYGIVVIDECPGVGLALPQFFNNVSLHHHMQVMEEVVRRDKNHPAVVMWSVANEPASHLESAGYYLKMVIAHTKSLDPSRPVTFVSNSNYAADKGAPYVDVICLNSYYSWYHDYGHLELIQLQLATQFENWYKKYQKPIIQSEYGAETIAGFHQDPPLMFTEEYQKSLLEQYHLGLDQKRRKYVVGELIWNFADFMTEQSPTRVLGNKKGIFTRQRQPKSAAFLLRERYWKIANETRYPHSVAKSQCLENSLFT
Experiment: GUS inhibition assay, hydrolysis of 4-methylumbelliferyl-β-glucuronide, HsGUS
Assay type: biochemical
Set-up: GUS activity (hydrolysis rate of MUG): unit not given here

SMILES: CCCCCCCCC[C@@H]1NC[C@@H](O)[C@H](O)[C@H]1C(=O)O [Inhibitor 4, C6-nonyl UIFG]
- Ki (HsGUS, 50 mM sodium acetate pH 4.5, 37 °C): 105 µM
- GUS activity (hydrolysis rate of MUG) ([Inhibitor 4] =32 μM, [MUG] 0.1 mM): 862.058 and 811.68
- GUS activity (hydrolysis rate of MUG) ([Inhibitor 4] =32 μM, [MUG] 0.2 mM): 1454.23 and 1423.51
- GUS activity (hydrolysis rate of MUG) ([Inhibitor 4] =32 μM, [MUG] 0.4 mM): 2392.78 and 2276.09
- GUS activity (hydrolysis rate of MUG) ([Inhibitor 4] =32 μM, [MUG] 0.6 mM): 3009.56 and 2960.24
- GUS activity (hydrolysis rate of MUG) ([Inhibitor 4] =32 μM, [MUG] 0.8 mM): 3491.23 and 3336.67
- GUS activity (hydrolysis rate of MUG) ([Inhibitor 4] =32 μM, [MUG] 1.2 mM): 3870.44 and 4183.78
- GUS activity (hydrolysis rate of MUG) ([Inhibitor 4] =32 μM, [MUG] 1.6 mM): 4158.21 and 4615.97
- GUS activity (hydrolysis rate of MUG) ([Inhibitor 4] =32 μM, [MUG] 2 mM): 4779.14 and 4997.44
- GUS activity (hydrolysis rate of MUG) ([Inhibitor 4] =67 μM, [MUG] 0.1 mM): 714.053 and 717.679
- GUS activity (hydrolysis rate of MUG) ([Inhibitor 4] =67 μM, [MUG] 0.2 mM): 1251.96 and 1238.2
- GUS activity (hydrolysis rate of MUG) ([Inhibitor 4] =67 μM, [MUG] 0.4 mM): 2074.49 and 2003.18
- GUS activity (hydrolysis rate of MUG) ([Inhibitor 4] =67 μM, [MUG] 0.6 mM): 2680.12 and 2744.95
- GUS activity (hydrolysis rate of MUG) ([Inhibitor 4] =67 μM, [MUG] 0.8 mM): 3069.97 and 3096.82
- GUS activity (hydrolysis rate of MUG) ([Inhibitor 4] =67 μM, [MUG] 1.2 mM): 3696.42 and 3579.45
- GUS activity (hydrolysis rate of MUG) ([Inhibitor 4] =67 μM, [MUG] 1.6 mM): 4205.98 and 4285.65
- GUS activity (hydrolysis rate of MUG) ([Inhibitor 4] =67 μM, [MUG] 2 mM): 4703.3 and 4573.62
- GUS activity (hydrolysis rate of MUG) ([Inhibitor 4] =132 μM, [MUG] 0.1 mM): 517.307 and 519.469
- GUS activity (hydrolysis rate of MUG) ([Inhibitor 4] =132 μM, [MUG] 0.2 mM): 900.965 and 901.806
- GUS activity (hydrolysis rate of MUG) ([Inhibitor 4] =132 μM, [MUG] 0.4 mM): 1492.38 and 1537.56
- GUS activity (hydrolysis rate of MUG) ([Inhibitor 4] =132 μM, [MUG] 0.6 mM): 1976.12 and 2037.84
- GUS activity (hydrolysis rate of MUG) ([Inhibitor 4] =132 μM, [MUG] 0.8 mM): 2410.12 and 2475.98
- GUS activity (hydrolysis rate of MUG) ([Inhibitor 4] =132 μM, [MUG] 1.2 mM): 2927.86 and 2924.04
- GUS activity (hydrolysis rate of MUG) ([Inhibitor 4] =132 μM, [MUG] 1.6 mM): 3406.61 and 3409.83
- GUS activity (hydrolysis rate of MUG) ([Inhibitor 4] =132 μM, [MUG] 2 mM): 3959.47 and 3855.66
- GUS activity (hydrolysis rate of MUG) ([Inhibitor 4] =180 μM, [MUG] 0.1 mM): 375.667 and 389.113
- GUS activity (hydrolysis rate of MUG) ([Inhibitor 4] =180 μM, [MUG] 0.2 mM): 647.66 and 642.675
- GUS activity (hydrolysis rate of MUG) ([Inhibitor 4] =180 μM, [MUG] 0.4 mM): 1075.66 and 1190.92
- GUS activity (hydrolysis rate of MUG) ([Inhibitor 4] =180 μM, [MUG] 0.6 mM): 1564.63 and 1648.7
- GUS activity (hydrolysis rate of MUG) ([Inhibitor 4] =180 μM, [MUG] 0.8 mM): 1885.35 and 1934.39
- GUS activity (hydrolysis rate of MUG) ([Inhibitor 4] =180 μM, [MUG] 1.2 mM): 2412.5 and 2422.72
- GUS activity (hydrolysis rate of MUG) ([Inhibitor 4] =180 μM, [MUG] 1.6 mM): 2821.07 and 2863.56
- GUS activity (hydrolysis rate of MUG) ([Inhibitor 4] =180 μM, [MUG] 2 mM): 3316.38 and 3309.46
- GUS activity (hydrolysis rate of MUG) ([Inhibitor 4] =262 μM, [MUG] 0.1 mM): 312.332 and 326.592
- GUS activity (hydrolysis rate of MUG) ([Inhibitor 4] =262 μM, [MUG] 0.2 mM): 574.208 and 582.829
- GUS activity (hydrolysis rate of MUG) ([Inhibitor 4] =262 μM, [MUG] 0.4 mM): 1016.99 and 1025.39
- GUS activity (hydrolysis rate of MUG) ([Inhibitor 4] =262 μM, [MUG] 0.6 mM): 1397.45 and 1434.43
- GUS activity (hydrolysis rate of MUG) ([Inhibitor 4] =262 μM, [MUG] 0.8 mM): 1699 and 1721.63
- GUS activity (hydrolysis rate of MUG) ([Inhibitor 4] =262 μM, [MUG] 1.2 mM): 2236.3 and 2225.05
- GUS activity (hydrolysis rate of MUG) ([Inhibitor 4] =262 μM, [MUG] 1.6 mM): 2654.14 and 2619.41
- GUS activity (hydrolysis rate of MUG) ([Inhibitor 4] =262 μM, [MUG] 2 mM): 3001.13 and 3042.83
